Measurements from ChEMBL document CHEMBL1124790, “Angiotensin converting enzyme inhibitors. 10. Aryl sulfonamide substituted N-[1-carboxy-3-phenylpropyl]-L-alanyl-L-proline derivatives as novel antihypertensives” (J Med Chem, 1990).
Values joined by “and” are separate entries in the source; they are usually repeats but may differ in a detail not shown here. Equal values may be shown once. Active and inactive are the calls of the source. The calls are words filed in the database; no cut-off is given here.

Legend:
Rattus norvegicus [1] = assay: Percent change in Na+ in fasted rats at the dose of 25 mg/kg (iv), 0-5 h; assay type: functional
Rattus norvegicus [2] = assay: Time duration was determined for the actioni (determination of MAP in ip administration) in rat; assay type: functional
Rattus norvegicus [3] = assay: Percent change in urinary volume in fasted rats at the dose of 25 mg/kg (iv), 0-5 h; assay type: functional, Urine
Rattus norvegicus [4] = assay: Percent change in K+ in fasted rats at the dose of 25 mg/kg (iv), 5-24 h; assay type: functional
[5] = target: T1, Angiotensin-converting enzyme (Oryctolagus cuniculus) (UniProt P12822); assay: Time during which angiotensin I converting enzyme inhibition is greater than or equa to 30% in rabbit lung; assay type: functional, tissue-based
T1 sequence (whole entry): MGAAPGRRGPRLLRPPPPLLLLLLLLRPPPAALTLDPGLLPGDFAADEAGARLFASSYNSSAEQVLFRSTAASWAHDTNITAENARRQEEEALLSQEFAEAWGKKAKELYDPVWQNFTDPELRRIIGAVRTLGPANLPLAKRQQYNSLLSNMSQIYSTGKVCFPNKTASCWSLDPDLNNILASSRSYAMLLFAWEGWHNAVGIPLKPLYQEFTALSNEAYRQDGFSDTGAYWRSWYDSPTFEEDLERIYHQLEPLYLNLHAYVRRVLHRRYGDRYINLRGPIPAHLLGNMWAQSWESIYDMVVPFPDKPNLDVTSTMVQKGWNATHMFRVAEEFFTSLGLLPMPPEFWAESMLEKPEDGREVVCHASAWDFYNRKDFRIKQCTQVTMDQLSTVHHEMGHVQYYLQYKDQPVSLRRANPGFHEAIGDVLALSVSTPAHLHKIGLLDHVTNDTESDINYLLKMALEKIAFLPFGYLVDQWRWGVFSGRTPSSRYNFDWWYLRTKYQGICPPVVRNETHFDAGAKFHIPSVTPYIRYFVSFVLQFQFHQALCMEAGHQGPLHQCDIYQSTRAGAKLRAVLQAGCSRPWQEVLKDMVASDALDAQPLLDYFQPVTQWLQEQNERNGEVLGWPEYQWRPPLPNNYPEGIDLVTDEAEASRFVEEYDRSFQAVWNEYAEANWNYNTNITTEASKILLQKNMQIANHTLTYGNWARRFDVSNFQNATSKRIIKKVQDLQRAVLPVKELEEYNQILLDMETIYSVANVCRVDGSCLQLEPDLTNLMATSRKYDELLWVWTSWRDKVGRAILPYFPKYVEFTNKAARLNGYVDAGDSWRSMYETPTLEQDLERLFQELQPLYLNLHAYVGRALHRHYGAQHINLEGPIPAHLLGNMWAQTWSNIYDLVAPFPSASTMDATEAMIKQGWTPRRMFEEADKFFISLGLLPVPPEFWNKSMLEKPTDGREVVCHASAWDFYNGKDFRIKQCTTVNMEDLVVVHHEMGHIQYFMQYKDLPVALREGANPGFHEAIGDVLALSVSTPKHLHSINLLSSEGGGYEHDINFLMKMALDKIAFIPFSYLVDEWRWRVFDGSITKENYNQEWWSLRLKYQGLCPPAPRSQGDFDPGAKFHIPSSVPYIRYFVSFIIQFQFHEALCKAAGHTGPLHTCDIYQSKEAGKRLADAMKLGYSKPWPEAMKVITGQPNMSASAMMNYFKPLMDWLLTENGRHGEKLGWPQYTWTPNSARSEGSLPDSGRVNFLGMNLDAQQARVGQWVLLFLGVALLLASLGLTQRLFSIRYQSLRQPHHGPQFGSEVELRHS

[6] = target: T1, Angiotensin-converting enzyme (Oryctolagus cuniculus); assay: In vivo inhibition of angiotensin I converting enzyme (ACE) in rabbit lung after (iv) administration of a dose of 10(mg/kg); assay type: organism-based
Rattus norvegicus [7] = species: Rattus norvegicus; assay: The onset hour was determined in rat; assay type: functional
Rattus norvegicus [8] = assay: Percent change in Na+in fasted rats at the dose of 25 mg/kg (iv), 5-24 h; assay type: functional
Rattus norvegicus [9] = assay: Percent change in K+ in fasted rats at the dose of 25 mg/kg (iv), 0-5 h; assay type: functional
[10] = target: T1, Angiotensin-converting enzyme (Oryctolagus cuniculus); assay: Time to inhibit maximum angiotensin I converting enzyme in rabbit lung; assay type: functional, tissue-based
Rattus norvegicus [11] = assay: Antihypertensive activity was determined in spontaneously hypertensive rat at a dose of 100 mg/kg(ip) administration; assay type: functional
Rattus norvegicus [12] = assay: Percent change in urinary volume in fasted rats at the dose of 25 mg/kg (iv), 5-24 h; assay type: functional, Urine
[13] = target: T1, Angiotensin-converting enzyme (Oryctolagus cuniculus); assay: In vivo inhibition of Angiotensin I converting enzyme in rabbit lung after (iv) administration of a dose of 1.0(mg/kg); assay type: organism-based
[14] = target: T2, Angiotensin-converting enzyme (Oryctolagus cuniculus, UniProt P12822); assay: In vitro inhibition of Angiotensin I converting enzyme in rabbit lung; assay type: tissue-based
T2 sequence (P12822 whole entry): T1 sequence (whole entry)

[15] = target: T1, Angiotensin-converting enzyme (Oryctolagus cuniculus); assay: Time during which Angiotensin I converting enzyme inhibition is greater than or equa to 30% in rabbit lung
[16] = target: T1, Angiotensin-converting enzyme (Oryctolagus cuniculus); assay: Time to inhibit maximum Angiotensin I converting enzyme in rabbit lung; assay type: functional, tissue-based
[17] = tested on: Angiotensin-converting enzyme (Sus scrofa); assay: Time to inhibit maximum Angiotensin I converting enzyme in Hog plasma
[18] = tested on: Angiotensin-converting enzyme (Sus scrofa); assay: Time during which ACE inhibition is greater than or equal to 30% in Hog plasma
[19] = target: T1, Angiotensin-converting enzyme (Oryctolagus cuniculus); assay: In vivo inhibition of Angiotensin I converting enzyme in rabbit lung at the dose of 10(mg/kg), po; assay type: organism-based
Rattus norvegicus [20] = assay: Time duration was determined for the actioni (determination of MAP in case of oral administration) in rat; assay type: functional
Rattus norvegicus [21] = assay: Percent change in urinary volume in fasted rats at the dose of 30 mg/kg (iv), 0-5 h; assay type: functional, Urine
Rattus norvegicus [22] = assay: Percent change in Na+ in fasted rats at the dose of 30 mg/kg (iv), 0-5 h; assay type: functional
Rattus norvegicus [23] = assay: Percent change in urinary volume in fasted rats at the dose of 100 mg/kg (po), 0-5 h; assay type: functional, Urine
Rattus norvegicus [24] = assay: Percent change in K+ in fasted rats at the dose of 100 mg/kg (po), 0-5 h; assay type: functional
Rattus norvegicus [25] = assay: Antihypertensive activity was determined in spontaneously hypertensive rat at a dose of 100 mg/kg(po) administration; assay type: functional
Rattus norvegicus [26] = assay: Percent change in Na+in fasted rats at the dose of 100 mg/kg (po), 0-5 h; assay type: functional
[27] = target: T1, Angiotensin-converting enzyme (Oryctolagus cuniculus); assay: In vivo inhibition of angiotensin I converting enzyme (ACE) in rabbit lung at the dose of 10(mg/kg), po; assay type: organism-based
[28] = target: T2, Angiotensin-converting enzyme; assay: In vitro inhibition of angiotensin I converting enzyme (ACE) in rabbit lung; assay type: tissue-based
Rattus norvegicus [29] = assay: Percent change in K+ in fasted rats at the dose of 30 mg/kg (iv), 0-5 h; assay type: functional
[30] = tested on: Angiotensin-converting enzyme (Sus scrofa); assay: Time to inhibit maximum angiotensin I converting enzyme in Hog plasma
Rattus norvegicus [31] = assay: Percent change in Na+ in fasted rats at the dose of 82 mg/kg (iv), 0-5 h; assay type: functional
[32] = target: T2, Angiotensin-converting enzyme; assay: In vitro inhibition of angiotensin I converting enzyme(ACE) in rabbit lung; assay type: tissue-based
Rattus norvegicus [33] = assay: Percent change in K+ in fasted rats at the dose of 82 mg/kg (iv), 0-5 h; assay type: functional
Rattus norvegicus [34] = assay: Percent change in urinary volume in fasted rats at the dose of 82 mg/kg (iv), 0-5 h; assay type: functional, Urine
[35] = tested on: Angiotensin-converting enzyme (Sus scrofa); assay: Time during which angiotensin I converting enzyme inhibition is greater than or equal to 30% in Hog plasma
[36] = target: T1, Angiotensin-converting enzyme (Oryctolagus cuniculus); assay: In vivo inhibition of angiotensin I converting enzyme (ACE) in rabbit lung after (po) administration of a dose of 10(mg/kg); assay type: organism-based
Rattus norvegicus [37] = assay: Percent change in K+ in fasted rats at the dose of 100 mg/kg (po), 5-24 h; assay type: functional
Rattus norvegicus [38] = assay: Percent change in urinary volume in fasted rats at the dose of 100 mg/kg (po), 5-24 h; assay type: functional, Urine
[39] = target: T1, Angiotensin-converting enzyme (Oryctolagus cuniculus); assay: Time to maximum inhibition of angiotensin I converting enzyme in rabbit lung; assay type: functional, tissue-based
[40] = target: T1, Angiotensin-converting enzyme (Oryctolagus cuniculus); assay: In vivo inhibition of angiotensin I converting enzyme (ACE) in rabbit lung after (ip) administration of a dose of 10(mg/kg); assay type: organism-based
[41] = target: T1, Angiotensin-converting enzyme (Oryctolagus cuniculus); assay: In vivo inhibition of angiotensin I converting enzyme(ACE) in rabbit lung at the dose of 10(mg/kg), po; assay type: organism-based
Rattus norvegicus [42] = assay: Percent change in Na+in fasted rats at the dose of 100 mg/kg (po), 5-24 h; assay type: functional
Rattus norvegicus [43] = assay: Percent change in K+ in fasted rats at the dose of 100 mg/kg (iv), 0-5 h; NA=Inactive; assay type: functional, organism-based; parameters: dose 100 mg/kg

SMILES: C[C@H](N[C@@H](CCc1ccccc1)C(=O)O)C(=O)N1C[C@@H](NS(=O)(=O)c2cc3c(cc2Cl)NC=NS3(=O)=O)C[C@H]1C(=O)O
- Change (Rattus norvegicus [1]): 0%
- Duration (Rattus norvegicus [2]): 3 h
- Change (Rattus norvegicus [3]): 0%
- Change (Rattus norvegicus [4]): 67%
- Duration [5]: 1.25 h
- inhibition [6]: 78%
- Onset (Rattus norvegicus [7]): <0.25 h
- Change (Rattus norvegicus [8]): 0%
- Change (Rattus norvegicus [9]): 40%
- Time to max. inhibition [10]: 0.3 h
- Change in MAP (Rattus norvegicus [11]): -11%
- Change (Rattus norvegicus [12]): 61%

SMILES: C[C@H](N[C@@H](CCc1ccccc1)C(=O)O)C(=O)N1CC(NNC(=O)c2ccc(Cl)c(S(N)(=O)=O)c2)C[C@H]1C(=O)O (some centres not stated)
- inhibition [13]: 85%
- IC50 [14]: 26 nM
- Duration [15]: 3 h
- Time to max. inhibition [16]: 0.3 h
- Time to max. inhibition [17]: 0.3 h
- Duration [18]: 0 h
- inhibition [19]: 52%

SMILES: C[C@H](N[C@@H](CCc1ccccc1)C(=O)O)C(=O)N1CC(N(C)CCC2Nc3cc(Cl)c(S(N)(=O)=O)cc3S(=O)(=O)N2)C[C@H]1C(=O)O.Cl.Cl (some centres not stated)
- Duration (Rattus norvegicus [20]): >42 h
- Duration (Rattus norvegicus [2]): >24 h
- Duration [5]: > 4 h and 3.7 h
- inhibition [6]: 96%
- Change (Rattus norvegicus [21]): 0%
- Onset (Rattus norvegicus [7]): 0.5 h
- Change (Rattus norvegicus [22]): 0%
- Change (Rattus norvegicus [23]): 0%
- Change (Rattus norvegicus [24]): 40%
- Change in MAP (Rattus norvegicus [25]; 100 mg/kg): -20% and -22%
- Change (Rattus norvegicus [26]): 36%
- Time to max. inhibition [10]: 2.7 h and 3 h
- inhibition [27]: 37%
- IC50 [28]: 18 nM
- Change (Rattus norvegicus [29]): 0%

SMILES: C[C@H](N[C@@H](CCc1ccccc1)C(=O)O)C(=O)N1C[C@H](OCCC2Nc3cc(Cl)c(S(N)(=O)=O)cc3S(=O)(=O)N2)C[C@H]1C(=O)O (some centres not stated)
- Duration (Rattus norvegicus [20]): 19 h
- Time to max. inhibition [30]: 2.6 h
- Duration (Rattus norvegicus [2]): >14 h
- Change (Rattus norvegicus [31]): 60%
- IC50 [32]: 22 nM
- Duration [5]: 3.7 h
- Change (Rattus norvegicus [33]): 80%
- inhibition [6]: 100%
- Onset (Rattus norvegicus [7]): 0.25 h
- Change (Rattus norvegicus [34]): 0%
- Change in MAP (Rattus norvegicus [25]): -19%
- Time to max. inhibition [10]: 0.3 h
- Change in MAP (Rattus norvegicus [11]): -35%
- Duration [35]: 1.6 h
- inhibition [36]: 38%

SMILES: C[C@H](N[C@@H](CCc1ccccc1)C(=O)O)C(=O)N1C(c2ccc(Cl)c(S(N)(=O)=O)c2)SC[C@H]1C(=O)O (some centres not stated)
- Change (Rattus norvegicus [37]): -45%
- Change (Rattus norvegicus [38]): -42%
- Time to max. inhibition [39]: 0.3 h
- inhibition [40]: 96%
- Change (Rattus norvegicus [23]): -43%
- inhibition [41]: 44%
- Change (Rattus norvegicus [24]): 0%
- Change (Rattus norvegicus [26]): 0%
- Time to max. inhibition [10]: 0.3 h
- Change (Rattus norvegicus [42]): -22%
- Change (Rattus norvegicus [43]): inactive
- IC50 [28]: 8 nM

SMILES: C[C@H](N[C@@H](CCc1ccccc1)C(=O)O)C(=O)N1C[C@@H](NS(=O)(=O)c2cc3c(cc2Cl)N=CNS3(=O)=O)C[C@H]1C(=O)O
- IC50 [28]: 23 nM
